Values joined by “and” are separate entries in the source; they are usually repeats but may differ in a detail not shown here. Equal values may be shown once. “Also recorded” adds a separate entry of the source.
Key:
[1] = test system: metastatic HER2+ Breast Cancer; test: Clinical course of patient with metastatic HER2+ breast cancer (PET scans); type: in vivo, human; conditions: one patient, on continued Vinorelbine and Trastuzumab; after initial increased PET uptake
HCC1954 cells [2] = test: Inhibition of migration of HCC1954 cells (transwell); type: cell-based, human; conditions: week 7 serum, 20 hours in transwells; FIG. 15
Description: Cells were starved overnight and then harvested and mixed with either pre-immune serum or postimmune serum. The cell-serum mixtures were incubated in transwells for 20 hours. The cells were then stained and those on the surface were wiped out. Migrated cells were then visualized under a light microscope and counted. Average over three replications with SD are shown.

NK cells [3] = test: NK cell activation in mice; type: in vivo
MDA-MB-231 cells [4] = test: Apoptosis induction (annexin V/propidium iodide); type: cell-based, human; conditions: overnight incubation with sera; FIG. 16
Description: Cells were incubated with 10% FBS (control) or either pre-immune or post-immune sera overnight and then harvested and stained with annexin V-FITC (FL1) and propidium iodide (FL3). Quadrants J4, P4 and Q4 show apoptotic cells in control, pre-immune serum treated and post-immune serum treated cells, respectively.

ZR-75-1 cells = test: Toxicity against ZR-75-1 cells; type: cell-based, human; conditions: other experiments
MCF-10A cells = test: Cytotoxicity of plasma on MCF-10A; type: cell-based, human; conditions: 10% plasma, 24 hours (up to 72 hours); non-tumorigenic line; FIG. 12
Description: Pictures were taken after 24 hours of incubation with 10% plasma of the indicated subjects.
(§1) Medium in control wells contained 10% FBS.

MCF-7 cells = test: Toxicity against MCF-7 cells; type: cell-based, human; conditions: other experiments
HCC1954 cells [5] = test: Serum cytotoxicity on HCC1954 cells (Example 5 patient); type: cell-based, human; conditions: week 7 serum, 10%, 48 hours; FIG. 14B
Description: (§2) HCC1954 cells were harvested with enzyme-free buffer, washed and incubated with pre-immune sera or post-immune sera collected from the patient at Week 7. Binding of IgG antibodies in the sera to HCC1954 cells was visualized with an FITC-conjugated mouse anti-human IgG. […] The dashed line histogram show binding of IgG from pre-immune serum to HCC1954 cells. The solid line histogram show binding of IgG from post-immune serum collected at week 7 to HCC1954 cells. 1:100 dilution of the serum was used for reactivity. FIG. 14B is a bar graph showing that serum from the patient collected 7 weeks post-immunization kills HCC1954 breast cancer cells in vitro. 1×10^4 cells were seeded in wells of 96-well plate in medium containing 10% FBS. […] Medium in control wells contained 10% FBS. Media were refreshed after 24 hours. 48 hours after addition of sera, supernatants were removed, cells fixed and stained with Crystal violet. Percentage of cytotoxicity was calculated based on cell number in control wells. Error bars represent SD based on three replications. The experiment was repeated three times. Two tail Student's t-test was used for comparison of means.

[6] = test system: multiple-antigen peptide (MAP) version of P10s; test: ELISA of anti-P10s antibodies in sera/plasma of vaccinated subjects; type: in vivo, human; conditions: for Immunized plasma binding to MAP (ELISA): one line per subject
Description: IgM and IgG fractions of serum antibodies from the immunized patient bind to MAP form of P10s in ELISA assays. ELISA plates were coated with 1 μg/well of the P10s MAP peptide in carbonate-bicarbonate buffer overnight. Serial dilutions were added after blocking wells in PBS containing 0.5% FBS and 0.2% Tween 20 for 1 h at 37° C. Serum dilutions were incubated for two hours at 37° C. After washing, wells were incubated with HRP-conjugated mouse anti-human IgM and IgG for 1 hour at 37° C., then substrate was added and the reaction was stopped after 20 minutes. Plates were read by an ELISA reader at […]. Titers were estimated from absorbance-versus-dilution curves by linear regression. The intercept of the regression line for each subject's pre-immune serum was defined as the absorbance cutoff for determining end-point titer for that subject, and the dilution where each sample's regression line crossed the subject's absorbance cutoff was defined to be the sample's end-point titer. Extrapolation beyond one dilution below the minimum or above the maximum actual dilutions was not allowed. This procedure normalized each subject's pre-immune titer to be 1:100, and subjects with a 10-fold or greater increase in end-point titer over the 1:100 titer are considered responders.
ELISA plates were coated with MAP version of P10s and reactivity of two-fold serial dilutions of pre- and post-immune sera was detected by HRP-conjugated anti-human IgG (FIG. 7A) and IgM (FIG. 7B). The endpoint titers shown in FIG. 7A and FIG. 7B were estimated from absorbance-versus-dilution curves by linear regression. The intercept of the regression line for each subject's pre-immune serum was the value used as the absorbance cutoff for determining end-point titer for that subject, and the dilution where each sample's regression line crossed the subject's absorbance cutoff was defined to be the sample's end-point titer. Extrapolation beyond one dilution below the minimum or above the maximum actual dilutions was not allowed. This procedure normalized each subject's pre-immune titer to be 1:100.
The presence of anti-P10s antibodies in the sera of patients before and after vaccination was assessed with ELISA. ELISA plates were coated with 1 μg/well of the multiple-antigen peptide (MAP) version of P10s in carbonate-bicarbonate buffer (Sigma-Aldrich, St. Louis, Mo.) overnight. Serial 2-fold dilutions of plasma and serum samples, from 1:100 (dilution step 0) to a final dilution of 1:12800 (dilution step 7), were added after blocking wells with PBS containing 0.5% FBS and 0.2% Tween 20 (Blocking buffer) for 1 h at 37° C. Serum dilutions in blocking buffer were incubated for two hours at 37° C. After washing, wells were incubated with HRP-conjugated mouse anti-human IgM and IgG (Sigma-Aldrich) for 1 hour at 37° C. Then Tetramethylbenzidine substrate (Sigma-Aldrich) was added and the reaction was stopped after 20 minutes. Plates were read using an ELISA reader at […].
The resulting absorbance-versus-dilution curves were used to estimate normalized endpoint titers as follows. (1) A linear regression of absorbance versus dilution step was performed on the serial dilutions of each sample from each subject, in which dilution steps were numbered as described above. (2) The intercept of the regression line for each subject's pre-immune sample was the value used as the absorbance cutoff for determining the endpoint titers of all samples collected from that subject. (3) The dilution step where each sample's regression line crossed the subject's absorbance cutoff was determined and called X(c), and the normalized endpoint titer was estimated from X(c) as Titer=1:(100*2^X(c)). This procedure normalized each subject's pre-immune titer to be 1:100. […]

[7] = test system: cancer cells (HCC1954 and MDA-MB-231); test: Immunized plasma toxicity on cancer cells (both cell lines); type: cell-based, human; conditions: one line per subject
Text: as §1

NK cells [8] = test: NK cell activation in vaccinated human patients; type: in vivo; conditions: human patients administered the vaccine
HCC1954 cells [9] = test: Binding of serum IgG to HCC1954 cells (flow cytometry); type: cell-based, human; conditions: week 7 serum, 1:100 dilution; FIG. 14A
Description: as §2

MDA-MB-231 cells [10] = test: Sensitization of tumor cells to docetaxel toxicity by post-immune serum; type: cell-based, human; conditions: 5 hours pre-incubation, docetaxel 24 hours; IC50 differs from FBS and pre-immune (P 6.21E-08, 0.002); FIG. 9
Description: MDA-MB-231 cells were cultured in RPMI medium containing 10% FBS overnight. Medium was then replaced with one that contained either pre-immune serum or post-immune serum. FBS was used as control. After 5 hours of incubation, docetaxel was added in serial dilutions into wells. 24 hours later wells were washed and live cells were fixed, stained and counted. Percentage of survival was calculated as the ratio of cell number at a given drug dose to the cell number at the “0” drug dose. Prism 5 software was used to fit dose response curves using survival data. IC50 of each curve was calculated.
MDA-MB-231 cells were cultured in RPMI medium containing 10% FBS overnight. Medium was then replaced with one that contained pre or post-immune sera. FBS was used as control. After 5 hours of incubation docetaxel was added in serial dilutions into wells. 24 hours later wells were washed and live cells were fixed, stained and counted. Percentage of survival was calculated as the ratio of cell number at a given drug dose to the cell number at the “0” drug dose. Prism 5 software was used to fit dose response curves using survival data. IC50 of each curve was calculated.

[11] = test system: stage IV breast cancer patients; test: Phase I trial: clinical response (disease progression); type: in vivo, human; conditions: one line per subject, concurrent chemotherapy
Text: The P10s-PADRE vaccine was developed for, inter alia, treatment of breast cancer patients with high risk of disease relapse. In the Phase I trial, research participants were restricted to females with histological or cytological confirmed stage IV breast cancer. Women 18 years of age or older, of all races, with histologically or cytologically confirmed stage IV breast cancer were eligible, and subjects were enrolled after providing written, informed consent. Disease staging was done according to the American Joint Commission on Cancer (AJCC), sixth edition. The following eligibility criteria were used: The cancer may have been newly diagnosed metastatic or relapsed after primary or adjuvant therapy and must not have required a treatment change for 2 months. Treatments with anti-estrogen therapy or chemotherapy were allowed. The chemotherapy regimen could not contain steroids in the pre- or post-supportive-care medications. […] Subjects had to be immunocompetent as measured by responsiveness to two recall antigens by skin testing. […]

HLA-DR = conditions: cited from earlier work

## H-Trp-Arg-Tyr-Thr-Ala-Pro-Val-His-Leu-Gly-Asp-Gly-dAla-Lys-CHAla-Val-Ala-Ala-Trp-Thr-Leu-Lys-Ala-Ala-dAla-NH2 [P10s-PADRE]
[1]
  lung lesions after vaccination: improvement of their lung lesions
HCC1954 cells [2]
  migration of cells: inhibited the migration
NK cells [3]
  NK cell activation: no NK activation
MDA-MB-231 cells [4]
  apoptosis: induced apoptosis
ZR-75-1 cells
  toxicity: toxicity was observe
MCF-10A cells
  toxicity of plasma: No toxicity
MCF-7 cells
  toxicity: no toxicity
HCC1954 cells [5]
  cell death on incubation with post-immunization serum: significant stimulation of cell death
[6]; 300 μg peptide per vaccination
  Immunized plasma binding to MAP (ELISA): Yes
[6]; 500 μg peptide per vaccination
  Immunized plasma binding to MAP (ELISA): Yes
[6]; 500 μg vs 300 μg, FIG. 10
  normalized endpoint titers, higher dose cohort vs lower dose cohort: higher normalized endpoint titers
[6]; Example 5 patient
  anti-peptide IgG persistence: remained high
  anti-peptide IgM persistence: returned back to the baseline by week 19
[6]; Example 5 patient, FIG. 13
  time course of anti-peptide IgM and IgG: peaked at week seven
[6]; all six subjects, FIG. 10
  IgG response to P10s MAP peptide form after immunization: persistent IgG response
[6]; all subjects of Example 3, FIGS. 4, 5
  IgG and IgM response to the vaccine: All subjects displayed an IgG and IgM response
[6]; subject #2 (300 μg), lowest of range
  increase of anti-peptide serum IgG normalized endpoint titer at week 7 compared to pre-immune: 31 folds
[6]; subjects #5 and #6 (500 μg), highest of range
  increase of anti-peptide serum IgG normalized endpoint titer at week 7 compared to pre-immune: 256 folds
[6]; three subjects evaluated further
  persistence of anti-P10s titer: starts to drop one year after the last immunization
[7]; 300 μg peptide per vaccination
  Immunized plasma toxicity on cancer cells: Yes
[7]; 500 μg peptide per vaccination, subject #5: high background toxicity in preimmune plasma
  Immunized plasma toxicity on cancer cells: Yes (2×) and No†
NK cells [8]
  NK cell activation: NK cells were activated
HCC1954 cells [9]
  binding of vaccine-induced serum to cells: bound
MDA-MB-231 cells [10]
  effect of pre-incubation with post-immunization serum on docetaxel toxicity: sensitized tumor cells to docetaxel toxicity
[11]; 300 μg peptide per vaccination
  Disease Progression: Stable; also recorded: Progressed
[11]; 500 μg peptide per vaccination
  Disease Progression: Stable

## dAla-Lys-CHAla-Val-Ala-Ala-Trp-Thr-Leu-Lys-Ala-Ala-dAla [PADRE]
HLA-DR
  number of the 16 most common types of HLA-DR with which complexes are formed: at least 15

— US10272144B2, “Compositions for and methods of treating and preventing targeting tumor associated carbohydrate antigens” (Board of Trustees of the University of Arkansas, priority 2013, dated 2019)
